This note sets out measurements from patent publication US6380254B2, “Method and composition for treating and preventing pathogenic effects caused by intracellular calcium overload” (Leigh Biotechnology, Inc., priority 1994, dated 2002).

Like-named read-outs stand apart in the source and are kept apart here.

What all share (type): cell-based, rat
The test system of test [1] is Hepatocytes. The experiment in a line: Viability of post-anaerobic hepatocytes (fraction of cytosolic lactate dehydrogenase retained intracellularly). The settings on record: for viability at 5000 µM: Rattus norvegicus, Hepatocyte, 1.5 h, read-out: SURVIVING FRACTION; for MEAN SURVIVING FRACTION: glycine 20 mM, mixture less than 5 mM total, 90 min anaerobic then 90 minute aerobic incubation, untreated .384. The procedure: Both perfusates were introduced in situ at a rate of 20 ml/minute. The liver was dispersed by several passages through a glass pipette tip (4 mm aperture), subsequently filtered through two layers of a 250 micron Nylon mesh, and diluted in 50 ml of a chilled suspension medium of the BSS containing 1.3 mM CaCl2, 1.3 mM MgCl2, 20 mM glucose, and 5 mM pyruvate. The crude suspension was purified by differential centrifugation (100 g per 2 minutes).
The purified cell suspension, consisting primarily of liver parenchymal cells, was washed three times with the cold suspension medium. The final pellet was resuspended at a concentration of 20 mg cell protein (Biuret assay) per milliliter of suspension medium and incubated aerobically for one hour at 24° C. in a 50 ml polypropylene centrifuge tube mounted horizontally on the rocker tray of a shaking water bath (30 strokes per minute). At the end of this incubation period, hepatocyte viability was assessed by trypan blue exclusion.
Samples of the purified cell suspension were then transferred to two 50 ml polypropylene test tubes. One of these tubes was purged of oxygen by flushing the gas phase with argon and then permitting the cells to consume the residual oxygen in the medium. […] This anaerobic suspension was maintained in a 37° C.. water bath without agitation.
The other test tube was supplemented with oxygen by flushing the gas phase with pure oxygen. Diffusion of oxygen from the gas phase to this aerobic reference cell suspension was encouraged by orienting the tube in such a fashion as to maximize surface area and by gently agitating the suspension in the 37° C.. water bath. After 90 minutes, both suspension were removed from the water bath and the cells were washed two times with an ice cold suspension buffer and then resuspended in a warm, aerated suspension medium to a concentration of 10 mg cell protein.
A one milliliter sample of the anaerobic suspension was added to 4 ml of warm, aerated suspension medium containing either no additives (for the untreated cells), or a single amino carboxylic acid at a concentration of 5 mM. Cell viability was assessed in each test population at the end of a subsequent 90 minute aerobic incubation at 37° C. by measuring the fraction of cytosolic lactate dehydrogenase activity retained intracellularly.
Cell viability was assessed as the fraction of the cytosolic enzyme, lactate dehydrogenase, retained intracellularly following a 90 minute aerobic incubation. A minimum of four observations were made and recorded.
Hepatocytes were incubated anaerobically for 90 minutes, then washed and resuspended in fresh medium containing either no additives (untreated cells), trifluoperazine (25 μM), glycine (20 mM or 150 mg per 100 ml), or a mixture of amino carboxylic acids (total amino carboxylic acid concentration was less than 5 mM or 65 mg per 100 ml). Cell viability was assessed as the fraction of lactate dehydrogenase retained intracellularly following a 90 minute aerobic incubation. A minimum of four observations were made and recorded.
Hepatocytes were incubated anaerobically for 90 minutes, then washed and resuspended in fresh medium containing either no additives (for the untreated cells), neomycin sulfate (10 mM), glycine (20 mM or 150 mg per 100 ml), or the mixture of amino carboxylic acids (total amino carboxylic acid concentration was less than 5 mM or 65 mg per 100 ml). Cell viability was assessed as the fraction of lactate dehydrogenase retained intracellularly following a 90 minute aerobic incubation. A minimum of four observations were made and recorded.

Test [2] concerns Hepatocytes. Described as above. The settings on record: glycine 20 mM, mixture less than 5 mM total, 90 min anaerobic then 90 minute aerobic incubation.
For a further test, the system named is glycogen phosphorylase a. Nature of the test: Intracellular calcium activity in post-anaerobic hepatocytes, expressed as glycogen phosphorylase a activity. The settings on record: mmols of PO^−3 liberated from glucose-1-phosphate per 1 million viable post-anaerobic cells; chlorpromazine 25 μM, glycine 20 mM, mixture less than 5 mM total; untreated 165.5. The procedure: Kinase is stimulated by increased intracellular calcium concentration via calmodulin. […] Thera., Vol. 238, pp. 186-191, 1986. […] Cell viability was assessed as the fraction of lactate dehydrogenase retained intracellularly following a 90 minute aerobic incubation. Intracellular calcium activity was assessed in these post-anaerobic cells by the method described in Long and Moore, supra, and expressed in terms of glycogen phosphorylase a activity. […] A minimum of four observations were made and recorded.
In general terms: Calcium flux is commonly read through the fluorescence of an indicator in the cells.

The mark [3] stands for this setting: single amino carboxylic acid at 5 mM, 90 min anaerobic, then 90 minute aerobic incubation at 37° C., untreated 0.25.
Setting [4] is: Table 2, chlorpromazine 25 μM, mean with standard deviation, untreated .342.
[5] abbreviates: Table 6, desferrioxamine 25 μM, untreated .363.
Setting [6] is: Table 5, alpha tocopherol succinate 100 mg per 100 ml, untreated .352.
Where [7] appears, read: Table 4, neomycin sulfate 10 mM.

Take `C[C@H](N)C(=O)O` [Alanine, alanine]: the viability at 5000 µM in the test on Hepatocytes [1] (setting [3]) worked out at 51%.
For the molecule `N=C(N)NCCC[C@H](N)C(=O)O` [Arginine, arginine], the viability at 5000 µM in the test on Hepatocytes [1] is 51%.
As to `NC(=O)C[C@H](N)C(=O)O` [Asparagine, asparagine], the viability at 5000 µM in the test with Hepatocytes [1] (setting [3]) turned out to be 54%.
As to `CN(C)CCCN1c2ccccc2Sc2ccc(Cl)cc21` [Chlorpromazine, chlorpromazine, reference compound], in the test with Hepatocytes [2] (setting [4]), the “MEAN SURVIVING FRACTION” value was “.567 ± .055”.
Consider `CC(=O)N(O)CCCCCNC(=O)CCC(=O)N(O)CCCCCNC(=O)CCC(=O)N(O)CCCCCN` [Desferrioxamine, desferrioxamine, reference compound], for which, in the test with Hepatocytes [2] (setting [5]), the “MEAN SURVIVING FRACTION” value is “.393 ± .029”.
Consider `N[C@@H](CCC(=O)O)C(=O)O` [Glutamic acid, glutamic acid], for which, in the test on Hepatocytes [1], the viability at 5000 µM was found to be 52%.
For `NC(=O)CC[C@H](N)C(=O)O` [Glutamine, glutamine], the viability at 5000 µM with Hepatocytes [1] (setting [3]) was 52%.
In the case of `NCC(=O)O` [Glycine, glycine], the “MEAN SURVIVING FRACTION” value in the test on Hepatocytes [2] (setting [4]) is “.698 ± .065”; in the test with Hepatocytes [2] (setting [6]) it was “.749 ± .020”; in the test with Hepatocytes [2] (setting [5]), “.696 ± .038”; in the test with Hepatocytes [1] (Table 3, trifluoperazine 25 μM) it was “.739 ± .014”; in the test with Hepatocytes [1] (setting [7]) it was “.694 ± .033”. In addition, the “GLYCOGEN PHOSPHORYLASE A ACTIVITY” value with glycogen phosphorylase a was found to be 124.8 ± 22.9 mmols. For the same molecule, the viability at 5000 µM in the test with Hepatocytes [1] (setting [3]) was determined as 53%.
On to `N[C@@H](Cc1c[nH]cn1)C(=O)O` [Histidine, histidine], for which, in the test with Hepatocytes [1] (setting [3]), the viability at 5000 µM is 50%.
In the case of `CC[C@H](C)[C@H](N)C(=O)O` [Isoleucine, isoleucine, reference compound], the viability at 5000 µM with Hepatocytes [1] (setting [3]) came to 29%.
On to `CC(C)C[C@H](N)C(=O)O` [Leucine, leucine, reference compound], for which, in the test on Hepatocytes [1] (setting [3]), the viability at 5000 µM came out at 32%.
On the same count and under the same terms, in the case of `O=C(O)[C@@H]1CCCN1` [Proline, proline] it was 49%; in that of `N[C@@H](CO)C(=O)O` [Serine, serine], 40%.
Take `CN1CCN(CCCN2c3ccccc3Sc3ccc(C(F)(F)F)cc32)CC1` [Trifluoperazine, trifluoperazine, reference compound]: in the test on Hepatocytes [1] (Table 3, trifluoperazine 25 μM), the “MEAN SURVIVING FRACTION” value is given as “.550 ± .061”.
For the molecule `N[C@@H](Cc1ccc(O)cc1)C(=O)O` [Tyrosine, tyrosine, reference compound], the viability at 5000 µM in the test with Hepatocytes [1] (setting [3]) stood at 31%.
The same measure, in the same setting: in the case of `CC(C)[C@H](N)C(=O)O` [Valine, valine, reference compound] it was 28%.
For `Cc1c(C)c2c(c(C)c1O)CC[C@@](C)(CCC[C@H](C)CCC[C@H](C)CCCC(C)C)O2` [alpha-tocopherol, reference compound], the “MEAN SURVIVING FRACTION” value in the test on Hepatocytes [2] (setting [6]) is reported as “.421 ± .087”.
Take neomycin sulfate [reference compound]: in the test with Hepatocytes [1] (setting [7]), the “MEAN SURVIVING FRACTION” value is given as “.566 ± .043”.
